Key:
[1] = Conductivity in aqueous solution (conductivity meter); type: physicochemical; conditions: aqueous 5 g/l solution; given for comparison
[2] = Equal sweetness, sensory panel, versus sucrose solutions; type: in vivo; conditions: scored against the reference = 50, line scale 0-100
Excerpt: The flavor characteristics can be evaluated by a sensory panel using techniques known in the art. Investigating the effects of flavor, mouthfeel and aftertaste requires an extended evaluation of the products and this was done by using Quantitative Descriptive Analysis (QDA). Therefore, a sensory panel assessed the protein products taking in account Good Sensory Practices. During the QDA measurement the intensities of the attributes were obtained by the Fizz sensory data acquisition system, using unstructured line scales ranging from 0-100. The products were evaluated twice with 11 panel members. The products were given one-by-one to the panel members. The products were given in a white polystyrene cup with a white polystyrene spoon in order to prevent sedimentation during tasting. Data were analyzed using SenPaq (Ql-statistics).
The panelists received a reference sample (2 wt.% rapeseed protein isolate in water) with a potency designated by an arbitrary sweetness value of 50 (middle of the scale), followed by several sucrose solutions coded and balanced with potencies higher than or lower than the reference. Panelists scored for example a sample that is perceived as twice as strong as the reference with a score of 100, half the sweetness was given a value of 25. Scores were gathered by means of FIZZ data acquisition on unstructured line scales ranging from 0-100. The various concentrations of sucrose were first determined by a pretest.
To identify the sweetness character (i.e. initial sweetness, lingering) of 2% rapeseed protein isolate in water compared to sucrose solutions (10 g/l, 20 g/l, 30 g/l, 40 g/l and 50 g/l) the samples were taken into the mouth on instruction of the panel leader. Directly the intensity of the sweetness was scored. After three seconds the sample was swallowed and the intensity was scored again, followed by scoring at 5, 10, 20, 30, 60, 90 and 120 seconds after swallowing. Intensity scores were given on unstructured 0-100 line scales in FIZZ. The samples were evaluated one-by-one in duplicate according to an optimally balanced design. Equal sweetness and sweetness character was assessed by comparing a 2 wt.% aqueous solution of the resultant native rapeseed protein isolate with aqueous sucrose solutions of different strengths at room temperature.

Compound	conductivity [1]	Relative Sweetness ([2]; 10 g/l aqueous solution)	Relative Sweetness ([2]; 20 g/l aqueous solution)	Relative Sweetness ([2]; 30 g/l aqueous solution)	Relative Sweetness ([2]; 40 g/l aqueous solution)	Relative Sweetness ([2]; 50 g/l aqueous solution)
[Cl-].[Na+] [sodium chloride]	around 9,400 µS/cm					
OC[C@H]1O[C@@](CO)(O[C@H]2O[C@H](CO)[C@@H](O)[C@H](O)[C@H]2O)[C@@H](O)[C@@H]1O [Sucrose]		35	49	68	70	78
